Reference: ChEMBL document CHEMBL4052645, “Discovery of potent and efficacious pyrrolopyridazines as dual JAK1/3 inhibitors” (Bioorg Med Chem Lett, 2017)
Values belong to the compound of their own block, whether it stands above or below them. The source made the active and inactive calls. No cut-off for these calls is given here.

How the values were obtained:
[1] = Oral bioavailability in rat; format: ADME, organism-based; conditions: in vivo
Serum = assay: Protein binding in human serum; format: ADME, cell-free
[2] = Clearance of compound in rat; format: ADME; conditions: in vivo
Rattus norvegicus = organism: Rattus norvegicus; assay: Clearance of compound in rat relative to hepatic blood flow; format: ADME; conditions: in vivo
Mus musculus [3] = assay: Antiarthritic activity in collagen-induced arthritis mouse model assessed as reduction in inflammation at 20 mg/kg bid measure up to 41 days; format: functional, organism-based
Mus musculus [4] = assay: Antiarthritic activity in collagen-induced mouse model assessed as […] at 20 mg/kg bid up to 41 days; format: functional, organism-based
[5] = target: Tyrosine-protein kinase JAK2 (Homo sapiens, UniProt O60674); assay: Inhibition of GST-tagged JAK2 (unknown origin) after 3 hrs by Caliper assay
JAK3/JAK1 = JAK3/JAK1 (Homo sapiens, UniProt P23458+P52333); assay: Inhibition of JAK1/JAK3 in human whole blood assessed as reduction in IL-2 induced IFN-gamma production after 18 hrs by ELISA; format: protein-complex assay
[6] = target: Voltage-gated inwardly rectifying potassium channel KCNH2 (Homo sapiens, UniProt Q12809); assay: Inhibition of human ERG by flux-based assay
[7] = Metabolic stability in mouse liver microsomes assessed as compound remaining after 10 mins; format: ADME, microsome; conditions: read-out: Stability
[8] = Selectivity ratio of IC50 for JAK2 dependent EPO-induced STAT5A phosphorylation in human TF1 cells to IC50 for JAK1/JAK3 dependent IL2-induced STAT3 phosphorylation in human PBMC derived T-cells
[9] = Permeability from apical side to basolateral side in human Caco2 cells; format: ADME, cell-based; conditions: Caco-2, read-out: permeability
[10] = Cmax in mouse at 10 mg/kg, po after 8 hrs; format: ADME, organism-based; design: dose 10 mg/kg, route oral; conditions: in vivo
[11] = Cmin in mouse at 10 mg/kg, po after 8 hrs; format: ADME, organism-based; conditions: in vivo, read-out: Cmin
[12] = target: Non-receptor tyrosine-protein kinase TYK2 (Homo sapiens, UniProt P29597); assay: Inhibition of His-tagged TYK2 (unknown origin) after 3 hrs by Caliper assay
[13] = target: Tyrosine-protein kinase JAK1 (Homo sapiens, UniProt P23458); assay: Inhibition of GST-tagged JAK1 (unknown origin) after 3 hrs by Caliper assay
[14] = target: T1, Tyrosine-protein kinase JAK3 (Homo sapiens, UniProt P52333); assay: Inhibition of JAK3 (unknown origin) using CSKtide as substrate after 30 mins in presence of [gamma33P]ATP by liquid scintillation counting method
T1 sequence (P52333 whole entry): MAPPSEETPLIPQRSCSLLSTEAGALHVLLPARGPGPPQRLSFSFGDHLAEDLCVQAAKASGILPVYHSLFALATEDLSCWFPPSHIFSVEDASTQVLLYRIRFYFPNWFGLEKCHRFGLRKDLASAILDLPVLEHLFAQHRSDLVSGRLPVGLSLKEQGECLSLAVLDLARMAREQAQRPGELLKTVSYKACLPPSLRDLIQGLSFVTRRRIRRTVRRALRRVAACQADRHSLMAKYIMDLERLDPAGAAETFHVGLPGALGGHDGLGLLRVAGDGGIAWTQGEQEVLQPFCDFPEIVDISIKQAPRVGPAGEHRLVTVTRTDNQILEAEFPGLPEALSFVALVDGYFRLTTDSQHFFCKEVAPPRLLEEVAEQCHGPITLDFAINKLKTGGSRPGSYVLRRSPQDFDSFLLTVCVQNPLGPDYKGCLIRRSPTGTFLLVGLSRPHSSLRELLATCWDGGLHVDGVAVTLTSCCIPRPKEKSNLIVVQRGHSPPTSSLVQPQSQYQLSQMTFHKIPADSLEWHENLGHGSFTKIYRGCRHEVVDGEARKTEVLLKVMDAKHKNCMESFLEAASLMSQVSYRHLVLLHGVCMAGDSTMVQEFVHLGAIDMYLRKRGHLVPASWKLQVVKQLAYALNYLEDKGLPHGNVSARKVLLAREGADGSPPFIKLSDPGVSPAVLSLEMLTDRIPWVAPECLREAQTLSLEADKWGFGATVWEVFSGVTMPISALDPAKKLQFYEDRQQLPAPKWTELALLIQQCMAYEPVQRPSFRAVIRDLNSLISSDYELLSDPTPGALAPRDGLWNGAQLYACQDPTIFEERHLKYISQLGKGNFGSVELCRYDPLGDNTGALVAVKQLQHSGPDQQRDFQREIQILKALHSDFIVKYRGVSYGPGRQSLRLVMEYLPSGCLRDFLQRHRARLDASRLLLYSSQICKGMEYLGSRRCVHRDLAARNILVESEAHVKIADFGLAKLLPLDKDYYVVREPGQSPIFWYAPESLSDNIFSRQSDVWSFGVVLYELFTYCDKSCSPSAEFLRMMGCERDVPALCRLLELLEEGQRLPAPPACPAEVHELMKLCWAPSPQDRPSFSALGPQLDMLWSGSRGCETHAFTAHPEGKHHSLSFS

Chain of Voltage-gated inwardly rectifying potassium channel KCNH2 (Q12809 whole entry): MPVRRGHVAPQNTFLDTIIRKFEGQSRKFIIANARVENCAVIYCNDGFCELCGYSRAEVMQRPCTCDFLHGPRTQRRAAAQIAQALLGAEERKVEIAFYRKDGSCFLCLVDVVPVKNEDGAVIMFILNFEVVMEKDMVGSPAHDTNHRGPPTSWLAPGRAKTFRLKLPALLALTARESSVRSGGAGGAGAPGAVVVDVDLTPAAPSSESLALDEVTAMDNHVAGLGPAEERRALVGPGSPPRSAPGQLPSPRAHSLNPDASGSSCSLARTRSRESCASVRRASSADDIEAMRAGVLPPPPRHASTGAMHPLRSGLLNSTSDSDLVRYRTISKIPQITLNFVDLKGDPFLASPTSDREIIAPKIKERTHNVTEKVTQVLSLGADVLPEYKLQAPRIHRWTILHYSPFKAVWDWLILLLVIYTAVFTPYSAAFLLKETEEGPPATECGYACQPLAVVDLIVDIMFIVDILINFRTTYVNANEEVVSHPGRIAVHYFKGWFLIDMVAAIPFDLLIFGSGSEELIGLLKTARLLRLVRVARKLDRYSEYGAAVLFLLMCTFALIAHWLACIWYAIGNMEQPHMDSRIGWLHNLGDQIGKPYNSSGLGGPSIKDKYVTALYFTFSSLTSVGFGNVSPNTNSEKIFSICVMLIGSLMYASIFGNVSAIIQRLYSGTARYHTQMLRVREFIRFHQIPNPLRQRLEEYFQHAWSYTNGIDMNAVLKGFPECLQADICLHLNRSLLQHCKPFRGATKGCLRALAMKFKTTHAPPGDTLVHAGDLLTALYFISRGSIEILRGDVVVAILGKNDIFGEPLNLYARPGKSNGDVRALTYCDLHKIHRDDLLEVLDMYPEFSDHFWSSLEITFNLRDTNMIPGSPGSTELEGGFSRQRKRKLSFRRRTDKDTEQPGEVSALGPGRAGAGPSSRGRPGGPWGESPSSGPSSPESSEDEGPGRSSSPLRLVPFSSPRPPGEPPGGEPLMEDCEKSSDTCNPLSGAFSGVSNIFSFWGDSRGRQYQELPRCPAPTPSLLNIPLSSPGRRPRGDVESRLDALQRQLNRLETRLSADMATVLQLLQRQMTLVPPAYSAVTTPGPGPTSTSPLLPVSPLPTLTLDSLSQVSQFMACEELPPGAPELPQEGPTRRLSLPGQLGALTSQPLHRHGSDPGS
Chain of Tyrosine-protein kinase JAK1 (P23458 whole entry): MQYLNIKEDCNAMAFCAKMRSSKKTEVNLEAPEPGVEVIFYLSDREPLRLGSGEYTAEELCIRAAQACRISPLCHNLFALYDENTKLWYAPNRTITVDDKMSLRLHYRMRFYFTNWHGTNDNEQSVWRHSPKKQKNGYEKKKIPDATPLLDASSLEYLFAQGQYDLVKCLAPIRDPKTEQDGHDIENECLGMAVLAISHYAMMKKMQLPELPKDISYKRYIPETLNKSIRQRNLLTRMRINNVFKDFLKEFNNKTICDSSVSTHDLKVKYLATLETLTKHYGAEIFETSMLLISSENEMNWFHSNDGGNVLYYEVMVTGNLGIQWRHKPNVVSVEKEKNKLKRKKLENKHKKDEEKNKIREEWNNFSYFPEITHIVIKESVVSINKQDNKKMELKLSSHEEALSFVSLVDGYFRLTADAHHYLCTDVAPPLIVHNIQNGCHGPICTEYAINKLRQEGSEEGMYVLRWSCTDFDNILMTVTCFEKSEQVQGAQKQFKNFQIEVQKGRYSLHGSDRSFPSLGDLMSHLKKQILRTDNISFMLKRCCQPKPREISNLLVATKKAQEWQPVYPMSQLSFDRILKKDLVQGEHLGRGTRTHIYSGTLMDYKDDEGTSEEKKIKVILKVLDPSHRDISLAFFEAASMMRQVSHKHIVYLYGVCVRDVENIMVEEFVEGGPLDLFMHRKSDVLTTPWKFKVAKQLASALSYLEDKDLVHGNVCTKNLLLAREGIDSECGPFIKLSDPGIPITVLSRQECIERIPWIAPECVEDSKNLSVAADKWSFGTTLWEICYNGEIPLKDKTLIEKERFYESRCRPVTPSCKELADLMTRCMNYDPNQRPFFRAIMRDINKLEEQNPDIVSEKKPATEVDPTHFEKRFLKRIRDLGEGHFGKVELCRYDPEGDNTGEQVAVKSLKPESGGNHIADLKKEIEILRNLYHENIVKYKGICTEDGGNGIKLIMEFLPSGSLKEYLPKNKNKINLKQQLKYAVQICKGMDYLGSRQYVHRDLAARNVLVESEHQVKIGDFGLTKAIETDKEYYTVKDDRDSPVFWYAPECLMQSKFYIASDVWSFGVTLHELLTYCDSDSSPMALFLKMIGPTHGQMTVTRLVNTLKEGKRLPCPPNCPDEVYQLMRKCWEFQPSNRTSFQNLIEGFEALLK
Chain of Tyrosine-protein kinase JAK2 (O60674 whole entry): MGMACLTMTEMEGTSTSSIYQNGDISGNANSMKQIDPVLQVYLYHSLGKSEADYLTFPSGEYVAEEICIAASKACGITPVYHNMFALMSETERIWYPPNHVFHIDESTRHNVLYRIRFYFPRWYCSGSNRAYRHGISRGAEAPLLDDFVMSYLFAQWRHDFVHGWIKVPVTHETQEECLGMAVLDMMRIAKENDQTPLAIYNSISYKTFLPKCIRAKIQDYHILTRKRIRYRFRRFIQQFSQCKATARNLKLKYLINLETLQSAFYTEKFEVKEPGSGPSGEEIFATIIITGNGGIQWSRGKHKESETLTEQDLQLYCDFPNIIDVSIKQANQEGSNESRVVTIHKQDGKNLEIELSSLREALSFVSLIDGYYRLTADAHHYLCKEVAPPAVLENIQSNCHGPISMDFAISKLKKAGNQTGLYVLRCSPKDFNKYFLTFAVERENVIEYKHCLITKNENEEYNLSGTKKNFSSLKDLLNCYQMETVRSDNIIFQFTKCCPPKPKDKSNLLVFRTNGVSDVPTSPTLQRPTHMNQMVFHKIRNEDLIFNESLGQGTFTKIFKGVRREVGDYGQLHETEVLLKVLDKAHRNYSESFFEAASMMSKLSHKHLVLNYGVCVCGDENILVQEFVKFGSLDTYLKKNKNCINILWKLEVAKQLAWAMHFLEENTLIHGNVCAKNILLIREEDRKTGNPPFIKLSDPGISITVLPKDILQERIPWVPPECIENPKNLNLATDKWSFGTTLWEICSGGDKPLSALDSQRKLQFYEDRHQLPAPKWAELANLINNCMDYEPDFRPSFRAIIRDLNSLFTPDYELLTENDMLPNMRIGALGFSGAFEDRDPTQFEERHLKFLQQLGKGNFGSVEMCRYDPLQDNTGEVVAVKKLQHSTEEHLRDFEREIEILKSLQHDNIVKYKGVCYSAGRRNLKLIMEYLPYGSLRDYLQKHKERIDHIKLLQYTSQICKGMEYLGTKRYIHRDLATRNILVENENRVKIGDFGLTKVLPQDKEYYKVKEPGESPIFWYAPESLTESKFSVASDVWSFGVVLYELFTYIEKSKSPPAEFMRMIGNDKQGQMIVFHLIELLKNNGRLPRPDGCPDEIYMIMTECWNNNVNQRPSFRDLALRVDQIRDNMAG
Chain of JAK3/JAK1 (P23458 whole entry, one chain of several): as the sequence (P23458 whole entry) above
Chain of Non-receptor tyrosine-protein kinase TYK2 (P29597 whole entry): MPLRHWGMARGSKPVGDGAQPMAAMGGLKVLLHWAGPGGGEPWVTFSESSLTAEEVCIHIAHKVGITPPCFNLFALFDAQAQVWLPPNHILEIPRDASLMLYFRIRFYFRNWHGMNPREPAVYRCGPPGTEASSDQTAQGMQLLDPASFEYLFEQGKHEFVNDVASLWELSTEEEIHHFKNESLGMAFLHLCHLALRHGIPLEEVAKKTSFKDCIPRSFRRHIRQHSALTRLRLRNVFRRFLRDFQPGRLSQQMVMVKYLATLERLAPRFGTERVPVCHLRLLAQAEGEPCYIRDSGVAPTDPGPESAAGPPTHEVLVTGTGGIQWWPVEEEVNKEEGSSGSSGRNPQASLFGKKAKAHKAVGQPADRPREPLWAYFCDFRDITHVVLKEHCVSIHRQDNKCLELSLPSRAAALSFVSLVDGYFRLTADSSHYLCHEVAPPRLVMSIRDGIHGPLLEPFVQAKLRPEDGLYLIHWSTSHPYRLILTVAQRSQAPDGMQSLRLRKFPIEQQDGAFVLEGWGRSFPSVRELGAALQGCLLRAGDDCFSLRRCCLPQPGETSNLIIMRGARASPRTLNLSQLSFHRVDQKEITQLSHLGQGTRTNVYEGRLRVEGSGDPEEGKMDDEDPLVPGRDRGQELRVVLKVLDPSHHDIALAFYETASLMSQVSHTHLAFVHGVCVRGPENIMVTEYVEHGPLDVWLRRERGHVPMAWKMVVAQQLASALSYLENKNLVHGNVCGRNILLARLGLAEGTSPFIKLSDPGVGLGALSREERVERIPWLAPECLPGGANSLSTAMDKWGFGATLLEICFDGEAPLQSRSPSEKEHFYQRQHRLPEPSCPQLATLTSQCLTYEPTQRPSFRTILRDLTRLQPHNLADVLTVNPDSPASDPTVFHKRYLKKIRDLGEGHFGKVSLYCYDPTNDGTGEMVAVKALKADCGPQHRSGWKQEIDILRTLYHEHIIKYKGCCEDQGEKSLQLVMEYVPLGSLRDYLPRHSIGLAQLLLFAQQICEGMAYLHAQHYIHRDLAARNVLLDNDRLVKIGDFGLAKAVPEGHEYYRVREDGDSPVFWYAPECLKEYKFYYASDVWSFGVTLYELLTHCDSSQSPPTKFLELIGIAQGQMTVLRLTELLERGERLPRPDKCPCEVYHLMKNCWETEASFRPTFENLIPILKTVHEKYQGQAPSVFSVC

- bioavailability [1]: 24%
- PB (Serum): 97%
- clearance [2]: 145 mL/min/kg
- CL (Rattus norvegicus): > 100%
Compound: CC1(C)[C@H](Nc2c(C(N)=O)cnn3cccc23)CC[C@]1(C)N

Compound: C[C@@H]1CCN(C(=O)CC#N)C[C@@H]1N(C)c1ncnc2[nH]ccc12
- Activity (Mus musculus [3]): Active
- Activity (Mus musculus [4]): Active

- IC50 [5]: 19 nM
- IC50 (JAK3/JAK1): 100 nM
- remaining at 10 min [7]: 88%
- Papp A→B [9]: < 1.5 ×10⁻⁶ cm/s
- Cmax [10]: 300 nM
- concentration at 8 h [11]: 100 nM
- IC50 [12]: 27 nM
- IC50 [13]: 2.2 nM
- IC50 [14]: 0.4 nM
Compound: CC1(C)[C@H](Nc2c(C(N)=O)cnn3cc(-c4ccc(F)nc4)cc23)CC[C@]1(C)N
- IC50 [6]: 35000 nM
- Ratio IC50 [8]: 13
